Target: T1, rhuman cathepsin K (Homo sapiens, UniProt P43235)
T1 sequence (P43235 115-329): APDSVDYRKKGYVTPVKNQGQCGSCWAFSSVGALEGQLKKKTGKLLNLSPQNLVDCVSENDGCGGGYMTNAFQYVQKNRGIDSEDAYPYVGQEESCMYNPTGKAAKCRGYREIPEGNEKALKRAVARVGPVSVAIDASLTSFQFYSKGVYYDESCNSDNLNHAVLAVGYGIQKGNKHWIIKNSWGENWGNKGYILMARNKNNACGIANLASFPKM
Test: Assay for identification of Cathepsin K inhibitors (QFRET, cleavage of Z-Phe-Arg-AMC)
Format: biochemical
Details: 0.5 nM rhuman cathepsin K, Z-Phe-Arg-AMC substrate, 30 min pre-incubation, 1 h incubation at room temperature; mean of two separate occasions; read-out: CatK FRET Mean pIC50 (converted)
Description: 0.5 nM [final] rhuman cathepsin K in phosphate buffer was added to a 384-well black microtitre plate containing investigative compounds. The enzyme and compound were pre-incubated at room temperature for 30 minutes before the addition of […] [final] Z-Phe-Arg-AMC synthetic substrate in phosphate buffer. The plates were covered and incubated for 1 h at room temperature, protected from light. Following the incubation the reaction was stopped with 7.5% [final]acetic acid. Relative fluorescence was measured using the Ultra plate reader at a wavelength of 360 nm excitation and 425 nm emission.
Data was corrected for background fluorescence (minimum controls without enzyme).

IC50 [nM] | SMILES
0.558 | N#CCOc1cccc2c3c([nH]c12)CCN(C(=O)[C@@H]1CCCC[C@H]1C(=O)NC1(C#N)CC1)C3 [Example 35, (1R,2R)-N-(1-cyanocyclopropyl)-2-{[6-(cyanomethoxy)-1,3,4,5-tetrahydro-2H-pyrido[4,3-b]indol-2-yl]carbonyl}cyclohexanecarboxamide]
4.32 | CSc1cccc2c3c([nH]c12)CCN(C(=O)[C@@H]1CCCC[C@H]1C(=O)NC1(C#N)CC1)C3 [Example 22, (1R,2R)-N-(1-cyanocyclopropyl)-2-{[6-(methylthio)-1,3,4,5-tetrahydro-2H-pyrido[4,3-b]indol-2-yl]carbonyl}cyclohexanecarboxamide]
5.5 | N#CC1(NC(=O)[C@@H]2CCCC[C@H]2C(=O)N2CCc3[nH]c4c(C(F)(F)F)cccc4c3C2)CC1 [Example 30, (1R,2R)-N-(1-cyanocyclopropyl)-2-{[6-(trifluoromethyl)-1,3,4,5-tetrahydro-2H-pyrido[4,3-b]indol-2-yl]carbonyl}cyclohexanecarboxamide]
0.767 | N#CC1(NC(=O)[C@@H]2CCCC[C@H]2C(=O)N2CCc3[nH]c4c(F)cccc4c3C2)CC1 [Example 3, (1R,2R)-N-(1-cyanocyclopropyl)-2-[(6-fluoro-1,3,4,5-tetrahydro-2H-pyrido[4,3-b]indol-2-yl)carbonyl]cyclohexanecarboxamide]
0.486 | CCCOc1cccc2c3c([nH]c12)CCN(C(=O)[C@@H]1CCCC[C@H]1C(=O)NC1(C#N)CC1)C3 [Example 34, (1R,2R)-N-(1-cyanocyclopropyl)-2-[(6-propoxy-1,3,4,5-tetrahydro-2H-pyrido[4,3-b]indol-2-yl)carbonyl]cyclohexanecarboxamide]
0.899 | CCOc1cccc2c3c([nH]c12)CCN(C(=O)[C@@H]1CCCC[C@H]1C(=O)NC1(C#N)CC1)C3 [Example 25, (1R,2R)-N-(1-cyanocyclopropyl)-2-[(6-ethoxy-1,3,4,5-tetrahydro-2H-pyrido[4,3-b]indol-2-yl)carbonyl]cyclohexanecarboxamide]
10.2 | N#CC1(NC(=O)[C@@H]2CCCC[C@H]2C(=O)N2CCc3[nH]c4cc(F)ccc4c3C2)CC1 [Example 10, (1R,2R)-N-(1-cyanocyclopropyl)-2-[(7-fluoro-1,3,4,5-tetrahydro-2H-pyrido[4,3-b]indol-2-yl)carbonyl]cyclohexanecarboxamide]

The remaining lines, values behind:

SMILES | IC50 [nM]
N#CC1(NC(=O)[C@@H]2CCCC[C@H]2C(=O)N2CCc3[nH]c4c(OCCN5CCCCC5)cccc4c3C2)CC1 [Example 39, (1R,2R)-N-(1-cyanocyclopropyl)-2-(6-(2-(piperidin-1-yl)ethoxy)-2,3,4,5-tetrahydro-1H-pyrido[4,3-b]indole-2-carbonyl)cyclohexanecarboxamide] | 0.728
N#CC1(NC(=O)[C@@H]2CCCC[C@H]2C(=O)N2CCc3[nH]c4c(OCc5ccccc5)cccc4c3C2)CC1 [Example 32, (1R,2R)-2-{[6-(benzyloxy)-1,3,4,5-tetrahydro-2H-pyrido[4,3-b]indol-2-yl]carbonyl}-N-(1-cyanocyclopropyl)cyclohexanecarboxamide] | 1
N#CC1(NC(=O)[C@@H]2CCCC[C@H]2C(=O)N2CCc3[nH]c4ncccc4c3C2)CC1 [Example 14] | 1.07
CN(C)CCOc1cccc2c3c([nH]c12)CCN(C(=O)[C@@H]1CCCC[C@H]1C(=O)NC1(C#N)CC1)C3 [Example 36, (1R,2R)-N-(1-cyanocyclopropyl)-2-(6-(2-(dimethylamino)ethoxy)-2,3,4,5-tetrahydro-1H-pyrido[4,3-b]indole-2-carbonyl)cyclohexanecarboxamide] | 0.324
COc1cc(F)cc2c3c([nH]c12)CCN(C(=O)[C@@H]1CCCC[C@H]1C(=O)NC1(C#N)CC1)C3 [Example 45, (1R,2R)-N-(1-cyanocyclopropyl)-2-(8-fluoro-6-methoxy-2,3,4,5-tetrahydro-1H-pyrido[4,3-b]indole-2-carbonyl)cyclohexanecarboxamide] | 0.807
N#CC1(NC(=O)[C@@H]2CCCC[C@H]2C(=O)N2CCc3[nH]c4ccc(Cl)cc4c3C2)CC1 [Example 2, (1R,2R)-2-[(8-chloro-1,3,4,5-tetrahydro-2H-pyrido[4,3-b]indol-2-yl)carbonyl]-N-(1-cyanocyclopropyl)cyclohexanecarboxamide] | 2.99
N#CC1(NC(=O)[C@@H]2CCCC[C@H]2C(=O)N2Cc3ccccc3C3(CCNCC3)C2)CC1 [Example 18, (1R,2R)-N-(1-cyanocyclopropyl)-2-(1H-spiro[isoquinoline-4,4′-piperidin]-2(3H)-ylcarbonyl)cyclohexanecarboxamide] | 7.1
COc1ccc2[nH]c3c(c2c1)CN(C(=O)[C@@H]1CCCC[C@H]1C(=O)NC1(C#N)CC1)CC3 [Example 8, (1R,2R)-N-(1-cyanocyclopropyl)-2-[(8-methoxy-1,3,4,5-tetrahydro-2H-pyrido[4,3-b]indol-2-yl)carbonyl]cyclohexanecarboxamide] | 40.7

From patent US8008279B2, “Compound—827” (AstraZeneca AB, priority 2007, dated 2011)
